Consider one molecule from patent USRE45471E1, “Pharmaceutical composition or combination drug” (Nanocarrier Co., Ltd., priority 2008, dated 2015).

For this assay, the system named is CDDP-resistant human lung cancer MOR/CPR cells. The assay is described as follows: In vitro cell growth inhibitory effect (WST method) on CDDP-resistant human lung cancer MOR/CPR cells. The conditions noted are these: gemcitabine hydrochloride alone, estimated. Type of assay: cell-based. The method, then: The GI50 value in the case of gemcitabine hydrochloride alone was estimated to be about 10 μg/mL.
The cisplatin coordination compound obtained in Example 1 was prepared as a mannitol solution having a final concentration of 5% so as to contain 2.5 mg/mL in terms of CDDP. […] Furthermore, the concentrations or dosages of the cis-platin coordination compound are all indicated as the concentrations or dosages in terms of CDDP.

Structures are written as SMILES. Structures can show the parent of a compound that is named as a salt.

What is called GI50 is the concentration that inhibits growth by half. Take `Nc1ccn([C@@H]2O[C@H](CO)[C@@H](O)C2(F)F)c(=O)n1` [gemcitabine hydrochloride, Gemcitabine hydrochloride]: the 50% growth inhibitory concentration (GI50) is about 10 µg/mL.
